Test results from ChEMBL document CHEMBL1153638, “Prolonged stability by cyclization: Macrocyclic phosphino dipeptide isostere inhibitors of beta-secretase (BACE1)” (Bioorg Med Chem Lett, 2009).
Numbered stars: 1 amine (or outer) side, 2 acyl side, 3 side chain; on linkers, the order of the positions; unused ones are H or OH. Square brackets hold non-standard residues; d marks the D form. Peptide text beside a SMILES is read from it. X1 = CC(C)C[C@H](N[*:1])P(=O)(O)C[C@@H](C)C(=O)[*:2]

Assays:
Beta-secretase 1 [1] = molecular target: T1, Beta-secretase 1 (Homo sapiens, UniProt P56817); assay: Inhibition of ectodomain of BACE1 secreted from […] cells by fluorimetry; assay type: cell-based
T1 sequence (P56817 whole entry, the tested form may be a part): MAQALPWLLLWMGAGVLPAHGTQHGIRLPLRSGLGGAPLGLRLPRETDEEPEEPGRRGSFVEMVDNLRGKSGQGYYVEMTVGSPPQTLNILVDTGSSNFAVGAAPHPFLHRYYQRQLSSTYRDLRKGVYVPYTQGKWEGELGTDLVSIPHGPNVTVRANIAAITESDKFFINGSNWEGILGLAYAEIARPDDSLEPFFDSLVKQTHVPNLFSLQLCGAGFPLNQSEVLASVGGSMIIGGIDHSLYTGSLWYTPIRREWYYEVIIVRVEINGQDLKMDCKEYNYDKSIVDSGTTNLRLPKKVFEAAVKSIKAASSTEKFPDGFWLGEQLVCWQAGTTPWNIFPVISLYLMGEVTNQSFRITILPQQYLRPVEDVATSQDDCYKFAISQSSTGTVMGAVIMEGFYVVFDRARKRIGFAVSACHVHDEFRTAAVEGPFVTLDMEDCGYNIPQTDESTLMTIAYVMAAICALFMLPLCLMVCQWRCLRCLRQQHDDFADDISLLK

[2] = Stability in human serum assessed as half life; assay type: ADME, cell-free
[3] = Stability in human serum after 120 mins; assay type: ADME, cell-free; details: read-out: Stability
Beta-secretase 1 [4] = molecular target: T1, Beta-secretase 1; assay: Inhibition of full-domain of BACE1 expressed in […] cells; assay type: cell-based
[5] = Stability in human serum after 160 mins; assay type: ADME, cell-free; details: read-out: Stability

Compound | IC50 (Beta-secretase 1 [1]) [nM] | half-life [2] [min] | remaining at 2 h [3] [%] | IC50 (Beta-secretase 1 [4]) [nM] | remaining at 160 min [5] [%]
CC(CP(=O)(O)C1CCCCCC[C@H](NC(=O)[C@@H](N)CCC(=O)O)C(=O)N[C@@H](CC(=O)O)C(=O)N1)C(=O)N[C@H](C(=O)N[C@@H](CCC(=O)O)C(=O)N[C@@H](Cc1ccccc1)C(=O)O)C(C)C (mixture of isomers; form 3) | 522 | – | – | – | –
CC(CP(=O)(O)C1CCCCCC[C@H](NC(=O)[C@@H](N)CCC(=O)O)C(=O)N[C@@H](CC(=O)O)C(=O)N1)C(=O)N[C@H](C(=O)N[C@@H](CCC(=O)O)C(=O)N[C@@H](Cc1ccccc1)C(=O)O)C(C)C (mixture of isomers; form 2) | 320 | – | – | – | –
CC(CP(=O)(O)C1CCCCCC[C@H](NC(=O)[C@@H](N)CCC(=O)O)C(=O)N[C@@H](CC(=O)O)C(=O)N1)C(=O)N[C@H](C(=O)N[C@@H](CCC(=O)O)C(=O)N[C@@H](Cc1ccccc1)C(=O)O)C(C)C (mixture of isomers; form 4) | 808 | – | – | – | –
CC(C)C[C@H](NC(=O)[C@@H](N)CCC(=O)O)C(=O)N[C@@H](CC(=O)O)C(=O)N[C@@H](CC(C)C)P(=O)(O)C[C@@H](C)C(=O)N[C@H](C(=O)N[C@@H](CCC(=O)O)C(=O)N[C@@H](Cc1ccccc1)C(=O)O)C(C)C (H-ELD[X1]VEF-OH) | – | 14.8 | 20 | 12 | –
CC(CP(=O)(O)C1CCCCCC[C@H](NC(=O)[C@@H](N)CCC(=O)O)C(=O)N[C@@H](CC(=O)O)C(=O)N1)C(=O)N[C@H](C(=O)N[C@@H](CCC(=O)O)C(=O)N[C@@H](Cc1ccccc1)C(=O)O)C(C)C (mixture of isomers; form 1) | 47 | 43.9 | – | – | 20
